# According to US20240409557A1, “5,6-FUSED AND 6,6-FUSED BICYCLIC ALCOHOLS AND ETHERS AND COMPOSITIONS FOR USE AS 15-PROSTAGLANDIN DEHYDROGENASE MODULATORS” (AMGEN INC., priority 2023, published 2024):
# Target: T1, human recombinant 15-PGDH (Homo sapiens, UniProt P15428)
# T1 sequence (P15428 1-266): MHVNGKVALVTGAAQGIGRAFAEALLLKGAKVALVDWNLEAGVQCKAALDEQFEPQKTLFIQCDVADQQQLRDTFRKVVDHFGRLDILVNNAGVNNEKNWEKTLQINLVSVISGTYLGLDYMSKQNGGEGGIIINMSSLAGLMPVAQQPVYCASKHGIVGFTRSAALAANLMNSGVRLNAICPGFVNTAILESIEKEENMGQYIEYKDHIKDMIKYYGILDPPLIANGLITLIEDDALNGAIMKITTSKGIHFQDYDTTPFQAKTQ
# Experiment: Recombinant 15-PGDH enzymatic inhibition assay (PGDH-Lumi, NADH signal)
# Format: biochemical
# Conditions: recombinant 15-PGDH; 15 min pre-incubation, 60 min reaction with PGE2 and NAD+, NADH signal
# Procedure: These assays measured 15-PGDH enzymatic activity by quantifying the amount of NADH produced during a 60-minute reaction initiated by the addition of PGE2 and NAD+. Under the conditions of these experiments, the increase of NADH signal upon oxidation of PGE2 and reduction of NAD+ was linearly proportional to 15-PGDH enzymatic activity. The recombinant human, mouse, rat and dog 15-PGDH enzymatic assays were performed in a 25 μL volume of reaction buffer containing 50 mM Tris, pH 7.5, 0.01% Tween-20 and […] DTT in a 384-well microtiter plate. In concentration-response experiments with tested compounds, 22 concentrations from 2-fold serial dilutions in DMSO were pre-incubated with 15-PGDH for 15 minutes at room temperature. Then, PGE2 and β-NAD+ were added to initiate the 15-PGDH reaction. After 60 minutes at room temperature, the reaction was quenched and NADH signal was measured using a microtiter plate reader.
# The following data (Table 27-1) provides the IC50 in μM of each compound for inhibiting enzymatic activity of the recombinant 15-PGDH in the assay described above.
row,Compound,IC50
1,"C[C@H](O)c1cc2c(C3CC3)cc(-c3cnc4nn(C)cc4c3)nc2s1 (single isomer, unassigned) [Compound B11S]",98.1 nM
2,"CC[C@H](O)c1cc2c(C3CC3)cc(-c3cnc4nn(C)cc4c3)nc2s1 (single isomer, unassigned) [Compound B13S]",23.6 nM
3,"CC(C)[C@H](O)c1cc2ccc(-c3cnc4nn(C)cc4c3)nc2s1 (single isomer, unassigned) [Compound B24S]",15.9 nM
4,"Cn1cc2cc(-c3ccc4cc([C@@H](O)C5CCC(F)(F)CC5)sc4n3)cnc2n1 (single isomer, unassigned) [Compound B31S]",5.64 nM
5,"Cn1ncc2cc(-c3ccc4cc([C@@H](O)C5CCOCC5)sc4n3)ccc21 (single isomer, unassigned) [Compound B34S]",4700 nM
6,"Cn1ncc2cc(-c3ccc4cc([C@@H](O)C5CCOCC5)sc4n3)cnc21 (single isomer, unassigned) [Compound B35S]",149 nM
7,"O[C@H](c1cc2ccc(-c3ccc4[nH]ncc4c3)nc2s1)C1CCOCC1 (single isomer, unassigned) [Compound B37S]",1880 nM
8,"Cc1cc2[nH]ncc2cc1-c1ccc2cc([C@H](O)C3CCOCC3)sc2n1 (single isomer, unassigned) [Compound B38R]",93 nM
9,"Cc1cc2[nH]ncc2cc1-c1ccc2cc([C@@H](O)C3CCOCC3)sc2n1 (single isomer, unassigned) [Compound B38S]",1010 nM
10,"Cn1nc2cc(-c3ccc4cc([C@@H](O)C5CCOCC5)sc4n3)cnc2n1 (single isomer, unassigned) [Compound B39S]",184 nM
11,"Cc1n[nH]c2ccc(-c3ccc4cc([C@H](O)C5CCOCC5)sc4n3)cc12 (single isomer, unassigned) [Compound B40R]",7.16 nM
12,"Cc1n[nH]c2ccc(-c3ccc4cc([C@@H](O)C5CCOCC5)sc4n3)cc12 (single isomer, unassigned) [Compound B40S]",3400 nM
13,"Cn1nnc2cc(-c3ccc4cc([C@@H](O)C5CCOCC5)sc4n3)cnc21 (single isomer, unassigned) [Compound B41S]",151 nM
14,"O[C@H](c1cc2ccc(-c3ccc4oncc4c3)nc2s1)C1CCOCC1 (single isomer, unassigned) [Compound B43S]",626 nM
15,"O[C@H](c1cc2ccc(-c3cnc4[nH]nnc4c3)nc2s1)C1CCOCC1 (single isomer, unassigned) [Compound B44S]",133 nM
16,"Cc1cn2cc(-c3ccc4cc([C@@H](O)C5CC(F)(F)C5)sc4n3)ccc2n1 (single isomer, unassigned) [Compound B48S]",11.8 nM
17,"Cn1cnc(-c2ccc3cc([C@@H](O)C4CC(F)(F)C4)sc3n2)cc1=O (single isomer, unassigned) [Compound B49S]",9.3 nM
18,"Cc1nc2ccc(-c3ccc4cc([C@@H](O)C5CC(F)(F)C5)sc4n3)cc2o1 (single isomer, unassigned) [Compound B51S]",6.58 nM
19,"CCC[C@H](O)c1cc2ccc(-c3cnc4nn(C)cc4c3)cc2s1 (single isomer, unassigned) [Compound B54S]",757 nM
20,"CC(C)n1cc2cc(-c3ccc4cc([C@@H](O)C5CC(F)(F)C5)sc4n3)ccc2n1 (single isomer, unassigned) [Compound B56S]",18.3 nM

row,Compound,IC50
1,"O[C@H](c1cc2ccc(-c3cncnc3)nc2s1)C1CC(F)(F)C1 (single isomer, unassigned) [Compound B57S]",13.2 nM
2,"Cn1cc2cc(-c3ccc4cc([C@@H](O)C5CCCC5)sc4c3)cnc2n1 (single isomer, unassigned) [Compound B58S]",111 nM
3,"COCC[C@H](O)c1cc2ccc(-c3cnc4nn(C)cc4c3)cc2s1 (single isomer, unassigned) [Compound B59S]",1100 nM
4,"Cn1cc2cc(-c3ccc4cc([C@@H](O)CCC(F)(F)F)sc4c3)cnc2n1 (single isomer, unassigned) [Compound B60S]",308 nM
5,"CC(C)n1ncc2cc(-c3ccc4cc([C@@H](O)C5CC(F)(F)C5)sc4n3)cnc21 (single isomer, unassigned) [Compound B65S]",23.1 nM
6,"[2H][C@@](O)(c1cc2ccc(-c3cnc4nn(C)cc4c3)nc2s1)C1CCOCC1 (single isomer, unassigned) [Compound B66S]",155 nM
7,"Cn1cc2cc(-c3ccc4cc([C@@H](CO)C5CC(F)(F)C5)sc4n3)cnc2n1 (single isomer, unassigned) [Compound B80R]",46.7 nM
8,"C[C@@H]1CC[C@@]1(O)c1cc2ccc(-c3cnc4nn(C)cc4c3)nc2s1 (single isomer, unassigned) [Compound C64SR]",466 nM
9,"Cn1cc2cc(-c3ccc4cc([C@]5(O)CCC5(C)C)sc4n3)cnc2n1 (single isomer, unassigned) [Compound C65S]",1990 nM
10,"Cn1cc2cc(-c3ccc4cc(CO)sc4n3)cnc2n1 [Compound A1, (6-(2-methyl-2H-pyrazolo[3,4-b]pyridin-5-yl)thieno[2,3-b]pyridin-2-yl)methanol]",159 nM
11,"CN(C)c1c(CO)c(-c2cnc3nn(C)cc3c2)nc2sc(CO)cc12 [Compound A2, (4-(dimethylamino)-6-(2-methyl-2H-pyrazolo[3,4-b]pyridin-5-yl)thieno[2,3-b]pyridine-2,5-diyl)dimethanol]",2160 nM
12,"COCc1cc2c(C3CCC3)cc(-c3cnc4nn(C)cc4c3)nc2s1 [Compound A3, 5-(4-cyclobutyl-2-(methoxymethyl)thieno[2,3-b]pyridin-6-yl)-2-methyl-2H-pyrazolo[3,4-b]pyridine]",671 nM
13,"COCc1cc2c(C3(COC)CCC3)cc(-c3cnc4nn(C)cc4c3)nc2s1 [Compound A4, 5-(2-(methoxymethyl)-4-(1-(methoxymethyl)cyclobutyl)thieno[2,3-b]pyridin-6-yl)-2-methyl-2H-pyrazolo[3,4-b]pyridine]",> 100000 nM
14,"Cn1nccc1-c1cc(-c2ccnn2C)c2cc(C(O)C3CCC3)sc2n1 (stereo not drawn) [Compound B1, (4,6-bis(1-methyl-1H-pyrazol-5-yl)thieno[2,3-b]pyridin-2-yl)(cyclobutyl)methanol]",58.6 nM
15,"Cn1cc2cc(-c3cc(-c4ccnn4C)nc4sc(C(O)C5CCC5)cc34)cnc2n1 (stereo not drawn) [Compound B3, cyclobutyl(4-(2-methyl-2H-pyrazolo[3,4-b]pyridin-5-yl)-6-(1-methyl-1H-pyrazol-5-yl)thieno[2,3-b]pyridin-2-yl)methanol]",64.3 nM
16,COC(c1cc2c(-c3ccnn3C)cc(-c3cnc4nn(C)cc4c3)nc2s1)C1CCC1 (stereo not drawn) [Compound B4],39.7 nM
17,"CC(O)c1cc2c(-c3cnc4nn(C)cc4c3)cc(-c3ccnn3C)nc2s1 (stereo not drawn) [Compound B5, 1-(4-(2-methyl-2H-pyrazolo[3,4-b]pyridin-5-yl)-6-(1-methyl-1H-pyrazol-5-yl)thieno[2,3-b]pyridin-2-yl)ethanol]",78.4 nM
18,"Cn1cc2cc(-c3cc(C4CC4)nc4sc(C(O)C5CCC5)cc34)cnc2n1 (stereo not drawn) [Compound B7, cyclobutyl(6-cyclopropyl-4-(2-methyl-2H-pyrazolo[3,4-b]pyridin-5-yl)thieno[2,3-b]pyridin-2-yl)methanol]",14.9 nM
19,"CC(O)c1cc2c(-c3ccnn3C)cc(-c3ccnn3C)nc2s1 (stereo not drawn) [Compound B9, 1-(4,6-bis(1-methyl-1H-pyrazol-5-yl)thieno[2,3-b]pyridin-2-yl)ethanol]",17700 nM
